Test results as given in patent publication US11077090B2, “Compounds and compositions and uses thereof” (Sunovion Pharmaceuticals Inc., priority 2016, dated 2021).

system: compound-treated mice; assay: Neuropharmacological assay (SmartCube): behavioral activity signature and minimal effective dose; format: in vivo; settings: Mus musculus, ip, MED = dose having 50% or more total activity, read-out: Potency: minimal effective dose (MED)
Summary of the method: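 Video-recorded behavior is compared algorithmically against a reference-compound database, yielding class probabilities (best dose reported). Compounds given i.p. in NMP/PEG/propylene glycol 15 min pre-test at 3 doses; potency as MED, the dose (mpk, range usually 0.3–30) reaching ≥50% total activity.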

| SMILES | minimal effective dose |
| --- | --- |
| Cl.NC1COCc2ccc(Cl)cc21 (stereo not drawn) [Example 1, 6-Chloroisochroman-4-amine hydrochloride] | 10 to 30 mg/kg |
| Cl.NC1COCc2cc(Cl)ccc21 (stereo not drawn) [Example 2] | 10 to 30 mg/kg |
| Cl.NC1COCc2cc(F)ccc21 (stereo not drawn) [Example 3] | 10 to 30 mg/kg |
| Cc1ccc2c(c1)COCC2N.Cl (stereo not drawn) [Example 4] | 10 to 30 mg/kg |
| Cl.NC1COCc2c(Cl)cccc21 (stereo not drawn) [Example 5] | < 3 mg/kg |
| NC1COCc2ccc(F)cc21 (stereo not drawn) [Example 6] | 3 to 10 mg/kg |
| Cl.NC1COCc2ccc(-c3ccccc3)cc21 (stereo not drawn) [Example 7, 6-Phenylisochroman-4-amine hydrochloride] | 10 to 30 mg/kg |
| CC(C)c1ccc2c(c1)C(N)COC2.Cl (stereo not drawn) [Example 8, 6-Isopropylisochroman-4-amine hydrochloride] | 10 to 30 mg/kg |
| Cl.NC1COCc2ccc(C(F)(F)F)cc21 (stereo not drawn) [Example 9, 6-Trifluoromethylisochroman-4-amine hydrochloride] | 3 to 10 mg/kg |

same assay, conditions: i.p. 15 min before test, most efficacious dose(s)

| SMILES | AD: ADHD (probability of activity signature) | AG: analgesic (probability of activity signature) | AX: anxiolytic (probability of activity signature) | CE: cognitive enhancer (probability of activity signature) | DP: anti-depressant (probability of activity signature) | MS: mood stabilizer (probability of activity signature) | PS: anti-psychotic (probability of activity signature) | SD: sedative hypnotic (probability of activity signature) | UN: uncharacterized CNS activity (probability of activity signature) |
| --- | --- | --- | --- | --- | --- | --- | --- | --- | --- |
| Cl.NC1COCc2ccc(Cl)cc21 (stereo not drawn) [Example 1, 6-Chloroisochroman-4-amine hydrochloride] | + (LOQ ≤ + <5%) | ++ (5% ≤ ++ <25%) | ++ (5% ≤ ++ <25%) | ++ (5% ≤ ++ <25%) | + (LOQ ≤ + <5%) | + (LOQ ≤ + <5%) | ++ (5% ≤ ++ <25%) | ++ (5% ≤ ++ <25%) | ++ (5% ≤ ++ <25%) |
| Cl.NC1COCc2cc(Cl)ccc21 (stereo not drawn) [Example 2] | + (LOQ ≤ + <5%) | ++ (5% ≤ ++ <25%) | ++ (5% ≤ ++ <25%) | + (LOQ ≤ + <5%) | + (LOQ ≤ + <5%) | + (LOQ ≤ + <5%) | + (LOQ ≤ + <5%) | + (LOQ ≤ + <5%) | +++ (25% ≤ +++ <50%) |
| Cl.NC1COCc2cc(F)ccc21 (stereo not drawn) [Example 3] | + (LOQ ≤ + <5%) | ++ (5% ≤ ++ <25%) | ++ (5% ≤ ++ <25%) | + (LOQ ≤ + <5%) | ++ (5% ≤ ++ <25%) | + (LOQ ≤ + <5%) | + (LOQ ≤ + <5%) | ++ (5% ≤ ++ <25%) | +++ (25% ≤ +++ <50%) |
| Cc1ccc2c(c1)COCC2N.Cl (stereo not drawn) [Example 4] | + (LOQ ≤ + <5%) | ++ (5% ≤ ++ <25%) | +++ (25% ≤ +++ <50%) | ++ (5% ≤ ++ <25%) | ++ (5% ≤ ++ <25%) | + (LOQ ≤ + <5%) | ++ (5% ≤ ++ <25%) | ++ (5% ≤ ++ <25%) | + (LOQ ≤ + <5%) |
| Cl.NC1COCc2c(Cl)cccc21 (stereo not drawn) [Example 5] | + (LOQ ≤ + <5%) | ++ (5% ≤ ++ <25%) | ++ (5% ≤ ++ <25%) | ++ (5% ≤ ++ <25%) | ++ (5% ≤ ++ <25%) | + (LOQ ≤ + <5%) | ++ (5% ≤ ++ <25%) | ++ (5% ≤ ++ <25%) | +++ (25% ≤ +++ <50%) |
| NC1COCc2ccc(F)cc21 (stereo not drawn) [Example 6] | + (LOQ ≤ + <5%) | ++ (5% ≤ ++ <25%) | ++ (5% ≤ ++ <25%) | + (LOQ ≤ + <5%) | ++ (5% ≤ ++ <25%) | + (LOQ ≤ + <5%) | + (LOQ ≤ + <5%) | ++ (5% ≤ ++ <25%) | ++++ (50% ≤ ++++) |
| Cl.NC1COCc2ccc(-c3ccccc3)cc21 (stereo not drawn) [Example 7, 6-Phenylisochroman-4-amine hydrochloride] | + (LOQ ≤ + <5%) | + (LOQ ≤ + <5%) | ++ (5% ≤ ++ <25%) | ++ (5% ≤ ++ <25%) | ++ (5% ≤ ++ <25%) | ++ (5% ≤ ++ <25%) | ++ (5% ≤ ++ <25%) | + (LOQ ≤ + <5%) | +++ (25% ≤ +++ <50%) |
| CC(C)c1ccc2c(c1)C(N)COC2.Cl (stereo not drawn) [Example 8, 6-Isopropylisochroman-4-amine hydrochloride] | + (LOQ ≤ + <5%) | ++ (5% ≤ ++ <25%) | ++ (5% ≤ ++ <25%) | ++ (5% ≤ ++ <25%) | ++ (5% ≤ ++ <25%) | + (LOQ ≤ + <5%) | ++ (5% ≤ ++ <25%) | +++ (25% ≤ +++ <50%) | ++ (5% ≤ ++ <25%) |
| Cl.NC1COCc2ccc(C(F)(F)F)cc21 (stereo not drawn) [Example 9, 6-Trifluoromethylisochroman-4-amine hydrochloride] | + (LOQ ≤ + <5%) | ++ (5% ≤ ++ <25%) | ++ (5% ≤ ++ <25%) | ++ (5% ≤ ++ <25%) | ++ (5% ≤ ++ <25%) | + (LOQ ≤ + <5%) | ++ (5% ≤ ++ <25%) | + (LOQ ≤ + <5%) | +++ (25% ≤ +++ <50%) |
